Where two headings read alike, the source gives them in different places. One block for each compound: values may come before it.
Columns and labels:
[1] = target: T1, purified PTP domain of SHP2 (Homo sapiens (Human), UniProt Q06124); test: PTPase assay with DiFMUP, SHP2; assay type: biochemical; conditions: for fold difference: SHP2 IC50 relative to CNBCA; for IC50: 1 nM enzyme, 20 μM DiFMUP, 37° C., 20 min
[2] = target: T2, purified PTP domain of SHP1 (Homo sapiens (Human), UniProt P29350); conditions: previously reported; cited from earlier work
[3] = target: T1, purified PTP domain of SHP2; conditions: previously reported value; read-out: IC50 SHP2 PTPase activity, parent compound; cited from earlier work
SHP2 = SHP2 (Homo sapiens (Human), UniProt Q06124); test: Enzyme kinetic studies with DiFMUP (Michaelis-Menten, Lineweaver-Burk); assay type: biochemical; conditions: for Km: 36.05 in its absence
[4] = test system: BT474 and MDA-MB468 cells; test: Cell growth in 2D culture, CNBCA; assay type: cell-based; conditions: 500 nM, 72 h
FL-SHP2 = FL-SHP2 (Homo sapiens (Human), UniProt Q06124); test: PTPase assay on FLAG-tagged FL-SHP2 immunoprecipitated from MDA-MB468 cells; assay type: biochemical; conditions: 20 μM DiFMUP
PTP1B = PTP1B (Homo sapiens (Human), UniProt P18031); test: CETSA with CNBCA, nontarget PTP1B in breast cancer cell lysates; assay type: binding; conditions: 100 μM CNBCA
[5] = test system: BT474 and MDA-MB468 cells; test: Colony formation in soft agar, CNBCA; assay type: cell-based; conditions: 500 nM, 10 days
[6] = target: purified PTP domain of PTP1B (Homo sapiens (Human), UniProt P18031); test: PTPase assay with DiFMUP, PTP1B; assay type: biochemical
[7] = test system: Akt and ERK1/2 activation in BT474 and MDA-MB468 cells; test: Immunoblotting for basal pERK1/2 and pAkt, CNBCA; assay type: cell-based; conditions: 48 h
[8] = test system: BT474 and MDA-MB468 cells; test: Mammosphere formation in suspension culture, CNBCA; assay type: cell-based; conditions: 500 nM, 10 days
[9] = target: T2, purified PTP domain of SHP1; test: PTPase assay with DiFMUP, SHP1; assay type: biochemical

PTP1B, sequence (P18031 whole entry): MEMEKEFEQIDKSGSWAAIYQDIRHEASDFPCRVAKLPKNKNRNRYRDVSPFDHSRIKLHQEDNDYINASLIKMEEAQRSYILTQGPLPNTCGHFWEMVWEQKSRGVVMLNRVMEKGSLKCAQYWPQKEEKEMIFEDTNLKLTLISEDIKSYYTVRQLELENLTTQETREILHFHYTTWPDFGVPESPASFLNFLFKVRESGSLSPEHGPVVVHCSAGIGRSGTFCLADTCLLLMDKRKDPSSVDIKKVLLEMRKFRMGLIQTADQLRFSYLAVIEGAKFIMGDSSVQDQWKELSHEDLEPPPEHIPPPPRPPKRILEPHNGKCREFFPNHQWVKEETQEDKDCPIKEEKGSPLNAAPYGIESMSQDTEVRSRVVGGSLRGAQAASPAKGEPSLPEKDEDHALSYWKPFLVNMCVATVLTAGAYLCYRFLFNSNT
T2 sequence (P29350 244-515): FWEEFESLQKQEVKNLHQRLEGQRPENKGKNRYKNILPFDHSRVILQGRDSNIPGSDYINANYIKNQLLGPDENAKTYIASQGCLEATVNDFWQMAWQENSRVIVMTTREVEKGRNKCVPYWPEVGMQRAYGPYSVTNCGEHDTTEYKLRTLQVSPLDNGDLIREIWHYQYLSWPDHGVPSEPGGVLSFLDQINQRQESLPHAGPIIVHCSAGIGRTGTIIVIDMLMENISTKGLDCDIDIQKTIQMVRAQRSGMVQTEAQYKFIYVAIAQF
purified PTP domain of PTP1B, sequence (P18031 3-277): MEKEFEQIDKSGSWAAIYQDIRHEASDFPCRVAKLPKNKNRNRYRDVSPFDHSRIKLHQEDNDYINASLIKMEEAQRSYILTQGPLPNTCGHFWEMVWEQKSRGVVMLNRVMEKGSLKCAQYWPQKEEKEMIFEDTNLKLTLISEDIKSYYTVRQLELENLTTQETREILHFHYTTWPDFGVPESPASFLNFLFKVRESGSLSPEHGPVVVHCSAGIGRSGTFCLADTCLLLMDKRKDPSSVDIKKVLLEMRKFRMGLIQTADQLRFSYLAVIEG

fold difference [1]: 5.7
SMILES: CCCCCCCCCOc1c(CCCC(=O)O)cc(-c2ccc(C(=O)O)cc2)cc1CCCC(=O)O [CNBDA]
selective to SHP2 than to SHP1, parent compound [2]: approximately 25 fold | IC50 [3]: 5 µM

mechanism of inhibition (SHP2): competitive inhibitor | Km (SHP2; in the presence of 1.0 μM CNBCA): 125 µM | Km (SHP2; in the presence of 2.0 μM CNBCA): 291 µM | better SHP2 IC50 than CNBBA [1]: 5.8 fold | better SHP2 IC50 than the parent compound CNBDA [1]: 5.7 fold | IC50 [1]: 0.87 µM | Selectivity ratio, SHP2 ([1]; SHP2 IC50 as reference): 1.0 | fold difference [1]: 1.0 | IC50 (FL-SHP2): 0.615 µM | nontarget PTP1B remaining in solution, band density (PTP1B; 49° C.): approximately 50% | nontarget PTP1B remaining in solution, band density (PTP1B; 55° C.): 25% | nontarget PTP1B remaining in solution, band density (PTP1B; 58° C.): less than 10% | IC50 ([6]; 10 μM DiFMUP): 25 µM | Selectivity ratio, PTP1B ([6]; PTP1B IC50 over SHP2 IC50): 28.73 | IC50 ([7]; BT474 and MDA-MB468 cells, band density, read-out: approximate IC50, SHP2 mediated Akt and ERK1/2 activation): ~1 µM | IC50 ([9]; 35 μM DiFMUP): 34.6 µM | more selective for SHP2 than for SHP1 ([9]; from IC50 values): 39.77 fold
SMILES: CCCCCCCCCOc1ccc(-c2ccc(C(=O)O)cc2)cc1CCCC(=O)O [CNBCA, 3′-(3-Carboxypropyl)-4′-(nonyloxy)-[1,1′-biphenyl]-4-carboxylic Acid]
cell growth in 2D culture [4]: still half-confluent | colony formation in soft agar [5]: fewer and smaller colonies | basal pERK1/2 and pAkt levels ([7]; 0.250 to 2.0 μM): downregulation of basal pERK1/2 and pAkt levels by CNBCA treatment in a concentration dependent manner | mammosphere formation [8]: fewer and smaller mammospheres

IC50 [1]: 5.1 µM | fold difference [1]: 5.8
SMILES: CCCCCCCCCOc1ccc(-c2ccc(CC(=O)O)cc2)cc1CCCC(=O)O [CNBBA, 4-(4′-(Carboxymethyl)-4-(nonyloxy)-[1,1′-biphenyl]-3-yl) Butanoic Acid]

From US20240199525A1, “SHP2-Targeting Small Molecules For Use As Anti-Cancer Agents” (West Virginia University Board of Governors on behalf of …, priority 2022, published 2024)
